Read-outs that look alike come from different tables or passages of the source. Values belong to the molecule of their own block, whether it stands above or below them.
Legend:
LNCaP cells [1] = test system: LNCaP cells;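 note: MTT formazan absorbance at 600 nm read after 72 h of compound exposure, IC50 fitted by nonlinear regression of dose-response curves, samples run in triplicate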
22Rv1 cells [2] = test system: 22Rv1 cells
Method: (§2) MDA PCa 2b was seeded at the same density in medium BRFF-HPC1 (Athena Enzyme Systems, Baltimore, Md., USA) supplemented with 20% FBS. After overnight incubation, the medium was changed to a fresh medium containing different concentrations of test compounds diluted from stock DMSO solution. The final concentration of DMSO is 0.5%. After 72 h of incubation with test compounds, 20 μL of 3-(4,5-dimethyl thiazol-2-yl)-2,5-diphenyltetrazolium bromide (MTT) solution (5 mg/mL in PBS) were added to each well and incubated further for 2 h. Next, the supernatant was aspirated and the MTT formazan formed by metabolically viable cells was dissolved in 100 μL of isopropanol. The plates were mixed for 30 min, and the absorbance was measured at 600 nm on a plate reader (FLUOstar OPTIMA, BMG LabTech). All samples were in triplicate. The IC50 values were determined from dose-response curves by nonlinear regression using PRISM v5.00 (GraphPad Software Inc, La Jolla, Calif., USA).
(§3) The in vitro cytotoxicity of 1-20 were evaluated by MTT assays in a panel of prostate cancer cell lines, including LNCaP, MDA PCa 2b, 22Rv1, C4-2B and PC-3.

MDA PCa 2b cells [3] = test system: MDA PCa 2b cells;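 note: MDA PCa 2b prostate cancer cells in BRFF-HPC1 with 20% FBS, exposed to compounds for 72 h, viable-cell MTT formazan read as absorbance at 600 nm, 0.5% DMSO vehicle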
PC-3 cells [4] = test system: PC-3 cells
Method: as §2, §3

C4-2B cells [5] = test system: C4-2B cells;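 note: cells treated with a dilution series for 72 h, then MTT added and absorbance read at 600 nm, IC50 fitted from dose-response curves by nonlinear regression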
Method: as §2, §3

MDA PCa 2b cells [6] = assay: MTT cell growth inhibition, MDA PCa 2b; conditions: MTT;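 note: MDA PCa 2b prostate cancer cells in BRFF-HPC1 with 20% FBS, exposed to compounds for 72 h, viable-cell MTT formazan read as absorbance at 600 nm, 0.5% DMSO vehicle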
LNCaP cells [7] = assay: MTT cell growth inhibition, LNCaP;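 note: MTT formazan absorbance at 600 nm read after 72 h of compound exposure, IC50 fitted by nonlinear regression of dose-response curves, samples run in triplicate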
C4-2B cells [8] = assay: MTT cell growth inhibition, C4-2B;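 note: cells treated with a dilution series for 72 h, then MTT added and absorbance read at 600 nm, IC50 fitted from dose-response curves by nonlinear regression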
Method: as §2, §3

22Rv1 cells [9] = assay: MTT cell growth inhibition, 22Rv1; conditions: MTT
Method: as §2, §3

PC-3 cells [10] = assay: MTT cell growth inhibition, PC-3
Method: as §2, §3

MCF-7 cells = assay: Growth inhibition, MCF-7 breast cancer cells; type: cell-based; conditions: for IC50: Homo sapiens, MCF7, read-out: Cytotoxicity, IC50 (μM) MCF-7
Excerpt: (§1) All samples were in triplicate.

H-1975 cells = assay: Growth inhibition, H-1975 lung cancer cells; type: cell-based; conditions: for IC50: Homo sapiens, NCI-H1975, read-out: Cytotoxicity, IC50 (μM) H-1975
Excerpt: as §1

MDA-MB-231 cells = assay: Growth inhibition, MDA-MB-231 breast cancer cells; type: cell-based; conditions: for IC50: Homo sapiens, MDA-MB-231
Excerpt: as §1

[11] = Table 10, read-out: Cytotoxicity, IC50 (μM) MDA-M B231
[12] = read-out: Cellular IC50 (μM) PCa 2b, Table 2, 72 h
[13] = read-out: Cellular IC50 (μM) LNCaP, Table 2, 72 h
[14] = read-out: Cellular IC50 (μM) PC-3, Table 2, 72 h, max tested 50 μM (β-ionone 150 μM)
[15] = read-out: Cellular IC50 (μM) C4-2B, Table 2, 72 h
[16] = read-out: Cellular IC50 (μM) 22Rv1, Table 2, 72 h
[17] = read-out: Cellular IC50 (μM) PCa2b, Table 8
[18] = read-out: Cellular IC50 (μM) LNCaP, Table 8
[19] = read-out: Cellular IC50 (μM) C4-2B, Table 8
[20] = read-out: Cellular IC50 (μM) 22Rv1, Table 8
[21] = read-out: Cellular IC50 (μM) PC3, Table 8
[22] = Table 11, read-out: Cytotoxicity, IC50 (μM) MDA-MB231

Structure (SMILES): CC1=CCCC(C)(C)C1/C=C/C(=O)/C=C/c1cccc([N+](=O)[O-])c1 (racemic) [Compound B21]
IC50 (LNCaP cells [1]): 3.3 µM | IC50 (22Rv1 cells [2]): 4.7 µM | IC50 (MDA PCa 2b cells [3]): 5.9 µM | IC50 (PC-3 cells [4]): 2.9 µM | IC50 (C4-2B cells [5]): 4 µM

Structure (SMILES): CC1=C(/C=C/C(=O)/C=C/c2ccccc2)C(C)(C)CCC1O (racemic) [Compound B23]
IC50 (LNCaP cells [1]): 5.8 µM | IC50 (22Rv1 cells [2]): 8 µM | IC50 (MDA PCa 2b cells [3]): 12.6 µM | IC50 (PC-3 cells [4]): 15.5 µM | IC50 (C4-2B cells [5]): 1.8 µM

Structure (SMILES): CC1=C(/C=C/C(=O)/C=C/c2ccc(F)c(C(F)(F)F)c2)C(C)(C)CCC1O (racemic) [Compound B32]
IC50 (LNCaP cells [1]): 2.2 µM | IC50 (22Rv1 cells [2]): 3.2 µM | IC50 (MDA PCa 2b cells [3]): 10 µM | IC50 (PC-3 cells [4]): 7.3 µM | IC50 (C4-2B cells [5]): 7.3 µM

Structure (SMILES): CC(O)(CS(=O)(=O)c1ccc(F)cc1)C(=O)Nc1ccc(C#N)c(C(F)(F)F)c1 (stereo not shown) [Bic, bicalutamide, reference compound]
IC50 (MDA PCa 2b cells [6]; read-out: Cytotoxicity in prostate cancer cell lines IC50 (μM), PCa-2b, Part D table, 72 hours): > 50 µM | IC50 (LNCaP cells [7]; read-out: Cytotoxicity in prostate cancer cell lines IC50 (μM), LNCaP, Part D table, 72 hours, I.A. = Inactive): 12.7 µM | IC50 (C4-2B cells [8]; read-out: Cytotoxicity in prostate cancer cell lines IC50 (μM), C4-2B, Part D table, 72 hours, I.A. = Inactive): > 25 µM | IC50 (22Rv1 cells [9]; read-out: Cytotoxicity in prostate cancer cell lines IC50 (μM), 22Rv1, Part D table, 72 hours): > 50 µM | Cytotoxicity in prostate cancer cell lines IC50 (μM), PC-3 (PC-3 cells [10]; Part D table, 72 hours, I.A. = Inactive): I.A.

Structure (SMILES): CCn1c2ccccc2c2cc(/C=C/C(O)=C/C(=O)/C=C/C3=C(C)CCCC3(C)C)ccc21 [Compound 9]
effect in MCF-7 breast cancer cell line (MCF-7 cells): effective | IC50 (MCF-7 cells; Table 10): 9.3 µM | effect in H-1975 lung cancer cell line (H-1975 cells): effective | IC50 (H-1975 cells; Table 10): 20.9 µM | IC50 (LNCaP cells [7]; read-out: IC50 (μM) LNCaP, Table 1, 72 h): 9.9 µM | effect in MDA-MB-231 breast cancer cell line (MDA-MB-231 cells): effective | IC50 (MDA-MB-231 cells; [11]): 11.7 µM | IC50 (C4-2B cells [8]; read-out: IC50 (μM) C4-2B, Table 1, 72 h): 7.4 µM | IC50 (22Rv1 cells [9]; read-out: IC50 (μM) 22Rv1, Table 1, 72 h): 4.1 µM | IC50 (μM) PC-3 (PC-3 cells [10]; Table 1, 72 h, maximum tested concentration 50 μM): Inactive^c

Structure (SMILES): CCn1c2ccccc2c2cc(/C=C(\C(=O)/C=C/C3=C(C)CCCC3(C)C)C(=O)/C=C/c3ccc(O)c(OC)c3)ccc21 [Compound 19]
IC50 (MDA PCa 2b cells [6]; [12]): 8.1 µM | IC50 (LNCaP cells [7]; [13]): 2.3 µM | IC50 (C4-2B cells [8]; [15]): 2.3 µM | IC50 (22Rv1 cells [9]; [16]): 2.4 µM | IC50 (PC-3 cells [10]; [14]): 7 µM

Structure (SMILES): CC(=O)N1N=C(/C=C/C2C(C)=CCCC2(C)C)CC1c1cccc(C(F)(F)F)c1 (stereo not shown) [Compound C2]
IC50 (MCF-7 cells; Table 11): 23.1 µM | IC50 (LNCaP cells [1]; human, 72 h): 16.8 µM | IC50 (H-1975 cells; Table 11): 14.8 µM | IC50 (MDA-MB-231 cells; [22]): 14.4 µM | IC50 (PC-3 cells [4]; human, 72 h): 15.9 µM | IC50 (C4-2B cells [5]; human, 72 h): 12.2 µM

Structure (SMILES): COc1ccc(C2CC(/C=C/C3=C(C)C(O)CCC3(C)C)=NN2C(C)=O)cc1OC (stereo not shown) [Compound C3]
IC50 (MCF-7 cells; Table 11): > 25 µM | IC50 (LNCaP cells [1]; human, 72 h): 24.7 µM | IC50 (H-1975 cells; Table 11): > 25 µM | IC50 (MDA-MB-231 cells; [22]): > 25 µM | IC50 (PC-3 cells [4]; human, 72 h): 25.5 µM | IC50 (C4-2B cells [5]; human, 72 h): 22.1 µM

Structure (SMILES): CC1=CCCC(C)(C)C1/C=C/C1=NNC(c2cccc(C(F)(F)F)c2)C1 (stereo not shown) [Compound C5]
IC50 (MCF-7 cells; Table 11): 17.6 µM | IC50 (LNCaP cells [1]; human, 72 h): 10.9 µM | IC50 (H-1975 cells; Table 11): 19.2 µM | IC50 (MDA-MB-231 cells; [22]): 15.8 µM | IC50 (C4-2B cells [5]; human, 72 h): 5.7 µM

Structure (SMILES): CC(=O)N1N=C(/C=C/C2C(C)=CCCC2(C)C)CC1c1ccccc1C(F)(F)F (stereo not shown) [Compound C6]
IC50 (MCF-7 cells; Table 11): 18.3 µM | IC50 (LNCaP cells [1]; human, 72 h): 18.2 µM | IC50 (H-1975 cells; Table 11): 18.3 µM | IC50 (MDA-MB-231 cells; [22]): 15.4 µM | IC50 (C4-2B cells [5]; human, 72 h): 16.6 µM

Structure (SMILES): COc1cc(/C=C/C(=O)CC(=O)/C=C/c2ccc(O)c(OC)c2)ccc1O [Curcumin, reference compound]
IC50 (MCF-7 cells; Table 10): 13.6 µM | IC50 (H-1975 cells; Table 10): > 25 µM | IC50 (LNCaP cells [7]; [13]): 8.5 µM | IC50 (MDA-MB-231 cells; [11]): 15.7 µM | IC50 (C4-2B cells [8]; [15]): 6.1 µM | IC50 (22Rv1 cells [9]; [16]): 18.3 µM | IC50 (PC-3 cells [10]; [14]): 16.8 µM

The next lines start with results.

IC50 (LNCaP cells [7]; [13]): 14.9 µM | IC50 (PC-3 cells [10]; [14]): 14.1 µM
Structure (SMILES): CCOc1ccc(C=CC(=O)C(=Cc2ccc(OCC)c(OCC)c2)C(=O)C=CC2=C(C)CCCC2(C)C)cc1OCC [Compound 13]
IC50 (MDA PCa 2b cells [6]; [12]): 6.8 µM

IC50 (LNCaP cells [7]; [13]): 4.5 µM | IC50 (22Rv1 cells [9]; [16]): 4.7 µM | IC50 (PC-3 cells [10]; [14]): 6.7 µM
Structure (SMILES): CC1=C(C=CC(=O)C(=Cc2ccc(O)cc2)C(=O)C=Cc2ccc(O)cc2)C(C)(C)CCC1 [Compound 14]
IC50 (MDA PCa 2b cells [6]; [12]): 4.7 µM | IC50 (C4-2B cells [8]; [15]): 4 µM

IC50 (LNCaP cells [7]; [13]): 8.7 µM | IC50 (22Rv1 cells [9]; [16]): 17.6 µM | IC50 (PC-3 cells [10]; [14]): 12.5 µM
Structure (SMILES): COc1cc(C=CC(=O)C(=Cc2cc(OC)c(O)c(OC)c2)C(=O)C=CC2=C(C)CCCC2(C)C)cc(OC)c1O [Compound 15]
IC50 (MDA PCa 2b cells [6]; [12]): 15.3 µM | IC50 (C4-2B cells [8]; [15]): 8.5 µM

IC50 (LNCaP cells [1]; human, 72 h): 1 µM | IC50 (22Rv1 cells [2]; human, 72 h): 2.9 µM | IC50 (MDA PCa 2b cells [3]; human, 72 h): 4.4 µM | IC50 (PC-3 cells [4]; human, 72 h): 5.2 µM | IC50 (C4-2B cells [5]; human, 72 h): 4.4 µM
Structure (SMILES): CC1=CCCC(C)(C)C1/C=C/C(=O)/C=C/c1cccc(C(F)(F)F)c1 (stereo not shown) [Compound B17, (1E,4E)-1-(3-(trifluoromethyl)phenyl)-5-(2,6,6-trimethylcyclohex-2-enyl)penta-1,4-dien-3-one]

IC50 (LNCaP cells [7]; [18]): 5.8 µM | IC50 (22Rv1 cells [9]; [20]): 8 µM | IC50 (PC-3 cells [10]; [21]): 15.5 µM
Structure (SMILES): CC1=C(/C=C/C(=O)/C=C/c2ccccc2)C(C)(C)CCC1O (stereo not shown) [Compound B44]
IC50 (MDA PCa 2b cells [6]; [17]): 12.6 µM | IC50 (C4-2B cells [8]; [19]): 1.8 µM

IC50 (LNCaP cells [7]; [18]): 0.74 µM | IC50 (22Rv1 cells [9]; [20]): 1.7 µM | IC50 (PC-3 cells [10]; [21]): 3.5 µM
Structure (SMILES): CC1=C(/C=C/C(=O)/C=C/c2cccc(C(F)(F)F)c2)C(C)(C)CCC1O (stereo not shown) [Compound B45]
IC50 (MDA PCa 2b cells [6]; [17]): 2.6 µM | IC50 (C4-2B cells [8]; [19]): 1.4 µM

IC50 (LNCaP cells [7]; [18]): 19.6 µM | IC50 (22Rv1 cells [9]; [20]): 22.6 µM | IC50 (PC-3 cells [10]; [21]): 32.9 µM
Structure (SMILES): COc1cc(/C=C/C(=O)/C=C/C2=C(C)C(O)CCC2(C)C)ccc1O (stereo not shown) [Compound B68]
IC50 (MDA PCa 2b cells [6]; [17]): > 25 µM | IC50 (C4-2B cells [8]; [19]): 20.3 µM

IC50 (LNCaP cells [1]; human, 72 h): 17.1 µM
Structure (SMILES): CC(=O)N1N=C(/C=C/C2C(C)=CCCC2(C)C)CC1c1ccccc1F (stereo not shown) [Compound C1]
IC50 (MCF-7 cells; Table 11): 25.3 µM | IC50 (H-1975 cells; Table 11): 23.7 µM | IC50 (MDA-MB-231 cells; [22]): 20.4 µM

IC50 (LNCaP cells [1]; human, 72 h): 35.4 µM | IC50 (PC-3 cells [4]; human, 72 h): 47 µM | IC50 (C4-2B cells [5]; human, 72 h): 17.8 µM
Structure (SMILES): CC(=O)N1N=C(/C=C/C2=C(C)C(O)CCC2(C)C)CC1c1cccc(C(F)(F)F)c1 (stereo not shown) [Compound C4]
IC50 (MCF-7 cells; Table 11): > 25 µM | IC50 (H-1975 cells; Table 11): > 25 µM | IC50 (MDA-MB-231 cells; [22]): > 25 µM

IC50 (LNCaP cells [1]; human, 72 h): 16.6 µM | IC50 (C4-2B cells [5]; human, 72 h): 14.4 µM
Structure (SMILES): CC(=O)N1N=C(/C=C/C2C(C)=CCCC2(C)C)CC1c1ccc(C(F)(F)F)cc1 (stereo not shown) [Compound C7]
IC50 (MCF-7 cells; Table 11): 20.8 µM | IC50 (H-1975 cells; Table 11): 17.9 µM | IC50 (MDA-MB-231 cells; [22]): 20 µM

From US8470889B2 (TRT Pharma Inc., priority 2008, dated 2013)
